Measurements published in patent publication US10150945B2, “Cell culture device and manufacturing method therof” (JNC CORPORATION, priority 2004, dated 2018).

System: A549 cells (human lung cancer cells)
Protocol: The cytotoxicity of ε-polylysines, the coating material used in the invention, to A549 cells (human lung cancer cells, obtained from ATCC) was evaluated. The cytotoxicity to ε-polylysine hydrochloride (Chisso Corp.) was compared with that to α-polylysine hydrobromide (Wako Pure Chemical, average molecular weight 15,000).
A549 cells were seeded on a 96-well microplate at a density of 1×10^4 cells/well. After culturing overnight at 37° C. under 5% CO2 using DME medium (containing 10% bovine embryonic serum), the medium was removed with an aspirator, and 40 μL each of fresh medium 1.25 times more concentrated as standard was added to each well. Finally 10 μL each of a polylysine salt solution that would eventually attain the specified concentration, and cultured at 37° C. for 3 hours.
After the 3-hour culture, the medium was removed again by an aspirator, 100 μL/well of fresh medium was added, and culture continued for 46 hours. The medium was still once more replaced by 110 μL of fresh medium, 10 μL each of Cell Counting Kit-8 (Dojindo Laboratories) was added and continued to be cultured for 2 hours at 37° C. for color reaction. A plate reader (Thermo Labsystems Multiskan Ascent BIF) was used to determine the absorbance at 450 nm (with 650 nm as a reference) and calculate the viability of the cells.

## α-polylysine hydrobromide
  viability of the cells (FIG. 5): no difference
